Results: US20260200951A1, “NOVEL BORATE COMPOUND SOLUBLE IN ALIPHATIC HYDROCARBON SOLVENT” (AGC INC., priority 2023, published 2026)

Key:
[1] = Evaluation of solubility (visual appearance of stored solutions in aliphatic hydrocarbon solvents); assay type: physicochemical; settings: for solubility room temperature, 3 days: stored at room temperature for 3 days
Text: The symbols used to evaluate solubility in the Tables mean the following: • ◯: homogeneous transparent solution state • Δ: cloudy state • x: two-phase separation or crystallization

[2] = Evaluation of polymerization performance (ethylene/1-octene solution polymerization with CGC catalyst, compound as cocatalyst); settings: CGC 3 μmol, catalyst:cocatalyst=1:1, TIBA 3000 μmol, 40 ml solvent (MCH), 1-octene 1 mL, ethylene 8 atm, 50° C., 6 min
Experimental: A general polymerization method using the compound of the present invention (compound (1-2)) as a cocatalyst is shown below.
Into 100 mL autoclave in a glove box were added 1-octene, triisobutylaluminum (TIBA, 1.00 M hexane solution) and a solvent (methylcyclohexane (MCH)) to prepare a comonomer solution. A polymerization catalyst (dimethylsilylene(tert-butylamide)-(tetramethylcyclopentadienyl)-titanium (IV)-dichloride (CGC)), triisobutylaluminum (1.00 M hexane solution), and a solvent were added to prepare a catalyst solution at a predetermined concentration, and the solution was transferred to a Schlenk tube. Compound (1-2) (cocatalyst) was dissolved in a solvent, and a cocatalyst solution at a predetermined concentration was prepared and transferred to the Schlenk tube. The comonomer solution, the catalyst solution, and the cocatalyst solution were mixed, and prepared such that the total amount of the solvent and the total amount of triisobutylaluminum would be constant. The inside of the autoclave was purged with ethylene gas, the catalyst solution and the cocatalyst solution were successively added to the autoclave, and the ethylene gas pressure was immediately adjusted to a predetermined pressure, and the mixture was stirred at 50° C. for 6 min. […]

[3] = 0.6 wt % (≈3 mM) borate compound/n-hexane solution, visual observation
[4] = 50 wt % borate compound/methylcyclohexane solution, visual observation
[5] = 50 wt % borate compound/methylcyclohexane solution, stored at −15° C. for 3 days, visual observation

Row | solubility at 3 days ([1]; organic solvent or mixture, 0.6 wt % (≈3 mM) borate compound/n-hexane solution, stored at −15° C. for 3 days, visual observation) [µM] | Structure (SMILES) | solubility room temperature, 3 days [1, 3] | solubility room temperature, 3 days [1, 4] | solubility −15° C., 3 days [1, 5] | solubility −15° C., 3 days ([1]; 0.6 wt % (≈3 mM) borate compound/n-hexane solution, stored at −15° C. for 3 days, visual observation) | solubility in aliphatic hydrocarbon solvents at low temperatures, in words ([1]; compared to Comparative Examples 1 to 5, summary of Tables 1 and 2) | ethylene-octene copolymer obtained [2] [mg]
1 | < 3000 | CCCCCCCCCCCCCCCCN(CCCCCCCCCCCCCCCC)c1ccccc1 [Comparative Example 1, N,N-Dihexadecylanilinium tetrakis(pentafluorophenyl) borate] | ∘ | ∘ | ∘ | – | – | –
2 | – | CCCCCCCCCCCCCCCCCC[NH+](CCCCCCCCCCCCCCCCCC)c1ccc(CCCC)cc1.Fc1c(F)c(F)c([B-](c2c(F)c(F)c(F)c(F)c2F)(c2c(F)c(F)c(F)c(F)c2F)c2c(F)c(F)c(F)c(F)c2F)c(F)c1F [Example 2, N,N-Dioctadecyl-4-butylanilinium tetrakis(pentafluorophenyl) borate] | ∘ | ∘ | ∘ | ∘ | remarkably high solubility | 47.3
